Measurements: the NIST ThermoML archive (doi:10.1021/je101008y)
± gives the expanded uncertainty stated by the source.

Assay: activity coefficient (dimensionless); of the first substance listed, at infinite dilution; xn = mol fraction of the nth substance listed
Settings: Liquid, Chromatography, x1 = 0

Row | Compound | activity coefficient (328.15 K) | activity coefficient (338.15 K) | activity coefficient (348.15 K) | activity coefficient (358.15 K) | activity coefficient (318.15 K) | activity coefficient (318.2 K) | activity coefficient (328.2 K) | activity coefficient (338.2 K) | activity coefficient (348.2 K) | activity coefficient (358.2 K)
1 | Cc1ccccc1C [1,2-dimethylbenzene] + CCCC[N+]1(C)CCCCC1.N#C[S-] | 4.18 ± 0.28 | 4.21 ± 0.29 | 4.24 ± 0.29 | 4.26 ± 0.29 | 4.15 ± 0.28 |  |  |  |  | 
2 | CCCCCCCCCC [decane] + CCCC[N+]1(C)CCCCC1.N#C[S-] | 433 ± 30 | 390 ± 27 | 342 ± 24 | 311 ± 21 | 487 ± 34 |  |  |  |  | 
3 | CCO [ethanol] + CCCC[N+]1(C)CCCCC1.N#C[S-] | 0.637 ± 0.044 | 0.627 ± 0.043 | 0.618 ± 0.043 | 0.612 ± 0.043 | 0.647 ± 0.044 |  |  |  |  | 
4 | c1ccccc1 [benzene] + CCCC[N+]1(C)CCCCC1.N#C[S-] | 1.92 ± 0.13 | 1.95 ± 0.13 | 1.97 ± 0.13 | 1.99 ± 0.14 | 1.9 ± 0.13 |  |  |  |  | 
5 | C#CCCCCC [1-heptyne] + CCCC[N+]1(C)CCCCC1.N#C[S-] | 9.19 ± 0.63 | 9.2 ± 0.6 | 9.23 ± 0.63 | 9.28 ± 0.63 | 9.17 ± 0.63 |  |  |  |  | 
6 | C#CCCCCCC [1-octyne] + CCCC[N+]1(C)CCCCC1.N#C[S-] | 13.6 ± 0.9 | 13.6 ± 0.9 | 13.7 ± 0.9 | 13.7 ± 0.9 | 13.6 ± 0.9 |  |  |  |  | 
7 | CCOCC [diethyl ether] + CCCC[N+]1(C)CCCCC1.N#C[S-] |  |  |  |  |  | 12 ± 0.8 | 11.6 ± 0.8 | 11.1 ± 0.8 | 10.8 ± 0.7 | 10.5 ± 0.7
8 | CC(C)=O [acetone] + CCCC[N+]1(C)CCCCC1.N#C[S-] |  |  |  |  |  | 1.52 ± 0.1 | 1.52 ± 0.1 | 1.53 ± 0.1 | 1.54 ± 0.1 | 1.55 ± 0.1
9 | Cc1cccc(C)c1 [1,3-dimethylbenzene] + CCCC[N+]1(C)CCCCC1.N#C[S-] | 5.25 ± 0.36 | 5.26 ± 0.36 | 5.27 ± 0.36 | 5.28 ± 0.36 | 5.23 ± 0.36 |  |  |  |  | 
10 | C1CCCCCCC1 [cyclooctane] + CCCC[N+]1(C)CCCCC1.N#C[S-] | 54 ± 4 | 49.1 ± 3.4 | 44.7 ± 3.1 | 42.1 ± 2.9 | 60 ± 4 |  |  |  |  | 
11 | Cc1ccccc1 [toluene] + CCCC[N+]1(C)CCCCC1.N#C[S-] | 3.16 ± 0.22 | 3.19 ± 0.22 | 3.21 ± 0.22 | 3.23 ± 0.22 | 3.14 ± 0.21 |  |  |  |  | 
12 | C=CCCCCC [1-heptene] + CCCC[N+]1(C)CCCCC1.N#C[S-] | 55.5 ± 3.8 | 51.7 ± 3.5 | 47.9 ± 3.3 | 45.7 ± 3.1 | 60.3 ± 4.1 |  |  |  |  | 
13 | C1CCCC1 [cyclopentane] + CCCC[N+]1(C)CCCCC1.N#C[S-] | 24.2 ± 1.7 | 22.1 ± 1.5 | 19.9 ± 1.4 | 18.9 ± 1.3 | 27.5 ± 1.9 |  |  |  |  | 
14 | CCCOCCC [dipropyl ether] + CCCC[N+]1(C)CCCCC1.N#C[S-] |  |  |  |  |  | 35.1 ± 2.4 | 32.9 ± 2.3 | 31 ± 2.1 | 29.3 ± 2 | 28 ± 1.9
15 | C1CCCCCC1 [cycloheptane] + CCCC[N+]1(C)CCCCC1.N#C[S-] | 41.5 ± 2.8 | 37.4 ± 2.6 | 34.6 ± 2.4 | 32.7 ± 2.2 | 44.3 ± 3 |  |  |  |  | 
16 | Cc1ccc(C)cc1 [1,4-dimethylbenzene] + CCCC[N+]1(C)CCCCC1.N#C[S-] | 5.04 ± 0.34 | 5.07 ± 0.35 | 5.1 ± 0.35 | 5.13 ± 0.35 | 5.01 ± 0.34 |  |  |  |  | 
17 | COC(C)(C)C [2-methoxy-2-methylpropane] + CCCC[N+]1(C)CCCCC1.N#C[S-] |  |  |  |  |  | 13.1 ± 0.9 | 12.7 ± 0.9 | 12.4 ± 0.8 | 12 ± 0.8 | 11.8 ± 0.8
18 | C1CCCCC1 [cyclohexane] + CCCC[N+]1(C)CCCCC1.N#C[S-] | 35.9 ± 2.5 | 32.4 ± 2.2 | 29.4 ± 2 | 27.5 ± 1.9 | 39.8 ± 2.7 |  |  |  |  | 
19 | C#CCCCC [1-hexyne] + CCCC[N+]1(C)CCCCC1.N#C[S-] | 6.11 ± 0.42 | 6.16 ± 0.42 | 6.19 ± 0.42 | 6.22 ± 0.42 | 6.07 ± 0.41 |  |  |  |  | 

Next, values leading:

Row | activity coefficient (328.15 K) | activity coefficient (338.15 K) | activity coefficient (348.15 K) | activity coefficient (358.15 K) | activity coefficient (318.15 K) | activity coefficient (318.2 K) | activity coefficient (328.2 K) | activity coefficient (338.2 K) | activity coefficient (348.2 K) | activity coefficient (358.2 K) | Compound
20 | 0.332 ± 0.032 | 0.337 ± 0.032 | 0.342 ± 0.032 | 0.348 ± 0.032 |  |  |  |  |  |  | O [water] + CCCC[N+]1(C)CCCCC1.N#C[S-]
21 | 142 ± 10 | 127 ± 9 | 111 ± 8 | 102 ± 7 | 170 ± 12 |  |  |  |  |  | CCCCCCC [heptane] + CCCC[N+]1(C)CCCCC1.N#C[S-]
22 | 293 ± 20 | 267 ± 18 | 234 ± 16 | 214 ± 15 | 333 ± 23 |  |  |  |  |  | CCCCCCCCC [nonane] + CCCC[N+]1(C)CCCCC1.N#C[S-]
23 | 206 ± 14 | 185 ± 13 | 161 ± 11 | 150 ± 10 | 236 ± 16 |  |  |  |  |  | CCCCCCCC [octane] + CCCC[N+]1(C)CCCCC1.N#C[S-]
24 | 2.31 ± 0.16 | 2.34 ± 0.16 | 2.36 ± 0.16 | 2.38 ± 0.16 | 2.28 ± 0.16 |  |  |  |  |  | C1CCOC1 [tetrahydrofuran] + CCCC[N+]1(C)CCCCC1.N#C[S-]
25 | 37 ± 3 | 34.6 ± 2.4 | 32 ± 2 | 30.1 ± 2.1 | 41.3 ± 2.8 |  |  |  |  |  | C=CCCCC [hex-1-ene] + CCCC[N+]1(C)CCCCC1.N#C[S-]
26 | 104 ± 7 | 89.3 ± 6.1 | 78.5 ± 5.4 | 68.5 ± 4.7 | 124 ± 9 |  |  |  |  |  | CCCCCC [hexane] + CCCC[N+]1(C)CCCCC1.N#C[S-]
27 | 0.368 ± 0.033 | 0.37 ± 0.033 | 0.371 ± 0.033 | 0.373 ± 0.033 | 0.366 ± 0.033 |  |  |  |  |  | CO [methanol] + CCCC[N+]1(C)CCCCC1.N#C[S-]
28 |  |  |  |  |  | 3.07 ± 0.21 | 3.08 ± 0.21 | 3.09 ± 0.21 | 3.11 ± 0.21 | 3.12 ± 0.21 | CCCC(C)=O [pentan-2-one] + CCCC[N+]1(C)CCCCC1.N#C[S-]
29 | 5.18 ± 0.35 | 5.16 ± 0.35 | 5.15 ± 0.35 | 5.14 ± 0.35 | 5.18 ± 0.35 |  |  |  |  |  | CCc1ccccc1 [ethylbenzene] + CCCC[N+]1(C)CCCCC1.N#C[S-]
30 |  |  |  |  |  | 3.08 ± 0.21 | 3.09 ± 0.21 | 3.11 ± 0.21 | 3.12 ± 0.21 | 3.13 ± 0.21 | CCC(=O)CC [pentan-3-one] + CCCC[N+]1(C)CCCCC1.N#C[S-]
31 | 1.13 ± 0.07 | 1.17 ± 0.07 | 1.2 ± 0.08 | 1.23 ± 0.08 | 1.1 ± 0.07 |  |  |  |  |  | c1ccsc1 [thiophene] + CCCC[N+]1(C)CCCCC1.N#C[S-]
32 | 83.7 ± 5.7 | 77.4 ± 5.3 | 71.5 ± 4.9 | 67.4 ± 4.6 | 90.6 ± 6.2 |  |  |  |  |  | C=CCCCCCC [oct-1-ene] + CCCC[N+]1(C)CCCCC1.N#C[S-]
